The values that follow come from patent US4426524A, “Heterocyclic substituted benzyl alcohol, insecticidal ester derivatives, and intermediates” (priority 1982, dated 1984).

One series has as its system cabbage looper. Description: Topical application, cabbage looper. The note with it: CL; for Topical % Kill @ 5000 ng/insect: 24 hours. Format: in vivo, Tricoplusia ni. The protocol:
(§1) Topical Application: The compounds of this invention were tested for insecticidal activity against various insect species selected from southern armyworm (Spodoptera eridania), Mexican bean beetle, (Epilachna varivestis), milkweed bug (Oncopeltus fasciatus), and cabbage looper (Tricoplusia ni) by applying to the second or third dorsal thoracic segment of each larvae a one microliter droplet containing 5 mg/mL of test compound in acetone (5000 ng/insect). The test was allowed to stand 24 hours after application and was then read to determine the percent kill.
(§2) To determine the LD50 of the compounds, the topical application test was repeated by applying various amounts of toxicant. Also included among the species tested against for this determination were tobacco budworm (Heliothis virescens), beet armyworm (Spodoptera exigua), and boll weevil (Anthonomus grandis).

The test system of series [1] is southern armyworm. The experiment in a line: Topical application, southern armyworm. Type of series: in vivo, Spodoptera eridania. As to conditions: SAW; for Topical % Kill @ 5000 ng/insect: 24 hours. How it is done: as §1, §2
Series [2] deals with Mexican bean beetle. The experiment in a line: Foliar application, Mexican bean beetle. Type of series: in vivo. As to conditions: Epilachna varivestis, read-out: Foliar % Kill (ppm). The protocol: (§3) Foliar Application: The activity of some of the compounds of the invention against various test species selected from pea aphid (Acyrthosiphon pisum), twospotted spider mite (Tetranychus urticae), southern armyworm (Spodoptera eridania), Mexican bean beetle (Epilachna varivestis), and cabbage looper (Tricoplusia ni) was determined by foliar application of the test compound. The test materials were formulated as aqueous solutions containing 10% acetone and 0.25% acetylphenoxypolyethoxyethanol. Activity against pea aphid was determined on English fava bean plants the leaves of which were sprayed to runoff with various concentrations of test solution prior to infestation with adult aphids. Activity against twospotted spider mite was evaluated on pinto bean plants whose leaves were sprayed to runoff with various concentrations of test solution after infestation with adult mites. Activity against the remaining species was evaluated on pinto bean plants whose leaves were sprayed to runoff with various concentrations of test solution before infestation with the appropriate immature insects. Mortality was read approximately 48 hours after treatment.

Another series concerns twospotted spider mite. Description: Foliar application, twospotted spider mite. Format: in vivo. As to conditions: Tetranychus urticae, read-out: Foliar % Kill (ppm). The protocol: as §3
The next series deals with milkweed bug. Description: Topical application, milkweed bug. Format: in vivo, Oncopeltus fasciatus. The note with it: MWB; for Topical % Kill @ 5000 ng/insect: 24 hours. The protocol: as §1, §2
The next series concerns pea aphid. The experiment in a line: Foliar application, pea aphid. Type of series: in vivo. As to conditions: Acyrthosiphon pisum, read-out: Foliar % Kill (ppm). The protocol:
as §3

In series [3] the test system is Mexican bean beetle. Description: Topical application, Mexican bean beetle. Type of series: in vivo, Epilachna varivestis. As to conditions: MBB; for Topical % Kill @ 5000 ng/insect: 24 hours. The protocol: as §1, §2
Series [4] has as its system southern armyworm. The experiment in a line: Foliar application, southern armyworm. The note with it: Spodoptera eridania, read-out: Foliar % Kill (ppm). Format: in vivo. The protocol:
as §3

Read-outs that look alike come from different tables or passages of the source.

As for `CC1(C)[C@@H](C=C(Cl)Cl)[C@@H]1C(=O)OCc1cccc(-c2cccs2)c1` (relative stereo) [c, 3-(2-thienyl)phenylmethyl trans-3-(2,2-dichloroethenyl)-2,2-dimethylcyclopropanecarboxylate], in the series on cabbage looper, the “Topical % Kill @ 5000 ng/insect” value stood at 0%. In the series on southern armyworm [1], the “Topical LD50” value stood at 421 ng/insect and the “Topical % Kill @ 5000 ng/insect” value came to 100%.

As for `CC1(C)C(C=C(Cl)Cl)C1C(=O)OCc1cccc(-c2cccs2)c1` (mixture of isomers) [a, 3-(2-thienyl)phenylmethyl cis,trans-3-(2,2-dichloroethenyl)-2,2-dimethylcyclopropanecarboxylate], in the series on cabbage looper, the “Topical LD50” value was 3649 ng/insect and the “Topical % Kill @ 5000 ng/insect” value is 100%. In the series with southern armyworm [1], the “Topical LD50” value was 148 ng/insect and the “Topical % Kill @ 5000 ng/insect” value was determined as 100%.

In the case of `CC1(C)[C@H](C=C(Cl)Cl)[C@@H]1C(=O)OCc1cccc(-c2cccs2)c1` (relative stereo) [b, 3-(2-thienyl)phenylmethyl cis-3-(2,2-dichloroethenyl)-2,2-dimethylcyclopropanecarboxylate], the “Topical LD50” value in the series with cabbage looper came to 1275 ng/insect; in the series with milkweed bug it was 1715 ng/insect; in the series with southern armyworm [1] it was 54 ng/insect; in the series on Mexican bean beetle [3], 471 ng/insect. The mortality at 512 ppm with Mexican bean beetle [2] (MBB, foliar, 512 ppm, 48 hours) was 80%; with pea aphid (PA, foliar, 512 ppm, 48 hours) it was 80%; in the series with southern armyworm [4] (SAW, foliar, 512 ppm, 48 hours), 95%. Also, the mortality at 500 ppm in the series with twospotted spider mite (TSM, foliar, 48 hours) came to 0%.

Take `CC1(C)[C@H](C=C(Cl)C(F)(F)F)[C@@H]1C(=O)OCc1cccc(-c2ccco2)c1` (relative stereo) [k, [3-(2-furanyl)phenyl]methyl cis-3-(2-chloro-3,3,3-trifluoro-1-propenyl)-2,2-dimethylcyclopropanecarboxylate]: the mortality at 512 ppm worked out at 100% in the series on Mexican bean beetle [2] (MBB, foliar, 512 ppm, 48 hours); 100% in the series on pea aphid (PA, foliar, 512 ppm, 48 hours); 100% with southern armyworm [4] (SAW, foliar, 512 ppm, 48 hours). The mortality at 64 ppm in the series on twospotted spider mite (TSM, foliar, 64 ppm, 48 hours) came out at 0%. Besides, the “Topical % Kill @ 5000 ng/insect” value was 40% in the series on milkweed bug, 100% in the series on southern armyworm [1] and 90% in the series on Mexican bean beetle [3]. Further, the “Topical LD50” value in the series on southern armyworm [1] stood at 366 ng/insect; with Mexican bean beetle [3] it was 510 ng/insect.

As for `CC1(C)[C@H](C(=O)OCc2cccc(-c3ccc(Br)o3)c2)[C@@H]1C=C(Cl)Cl` (relative stereo) [l, [3-(5-bromofuranyl)phenyl]methyl cis-3-(2,2-dichloroethenyl)-2,2-dimethylcyclopropanecarboxylate], the mortality at 512 ppm stood at 80% in the series on Mexican bean beetle [2] (48 h), 75% in the series with pea aphid (48 h) and 100% in the series with southern armyworm [4] (48 h). Besides, the mortality at 64 ppm in the series with twospotted spider mite (48 h) worked out at 0%. The “Topical % Kill @ 5000 ng/insect” value amounted to 0% in the series with milkweed bug, 100% in the series on southern armyworm [1] and 35% with Mexican bean beetle [3]. Moreover, the “Topical LD50” value in the series with southern armyworm [1] turned out to be 1819 ng/insect.

As to `Cc1c(COC(=O)[C@@H]2[C@H](C=C(Cl)Cl)C2(C)C)cccc1-c1cnccn1` (relative stereo) [q, [2-methyl-3-(pyrazinyl)phenyl]methyl cis-(2,2-dichloroethenyl)-2,2-dimethylcyclopropanecarboxylate], in the series with Mexican bean beetle [2] (MBB, foliar, 48 hours), the mortality at 64 ppm is 55%. Also, the mortality at 16 ppm in the series on twospotted spider mite (TSM, foliar, 48 hours) is 0%. For the same molecule, the “Topical LD50” value is recorded as 4915 ng/insect in the series on milkweed bug, 2387 ng/insect with southern armyworm [1] and 269 ng/insect in the series on Mexican bean beetle [3]. Also, the “Topical % Kill @ 5000 ng/insect” value in the series on milkweed bug, with southern armyworm [1] and with Mexican bean beetle [3] was 90% throughout. For the same molecule, the mortality at 500 ppm in the series on pea aphid (PA, foliar, 48 hours) stood at 100%; in the series with southern armyworm [4] (SAW, foliar, 48 hours), 85%.

Turning to `Cc1c(COC(=O)[C@H]2[C@@H](C=C(Cl)C(F)(F)F)C2(C)C)cccc1-c1ccccn1` (relative stereo) [s, [2-methyl-3-(pyridin-2-yl)phenyl]methyl cis-3-(2-chloro-3,3,3-trifluoro-1-propenyl)-2,2-dimethylcyclopropanecarboxylate], the mortality at 64 ppm in the series on Mexican bean beetle [2] (MBB, foliar, 48 hours) turned out to be 60%. Moreover, the mortality at 500 ppm in the series on twospotted spider mite (TSM, foliar, 48 hours) is 80%; in the series on pea aphid (PA, foliar, 48 hours) it was 100%; in the series on southern armyworm [4] (SAW, foliar, 48 hours), 100%. In addition, the “Topical LD50” value is 607 ng/insect with milkweed bug, 60 ng/insect in the series on southern armyworm [1] and 38 ng/insect in the series on Mexican bean beetle [3]. Also, the “Topical % Kill @ 5000 ng/insect” value with milkweed bug, in the series with southern armyworm [1] and with Mexican bean beetle [3] was 100% in each case.

With `CC1(C)[C@H](C=C(Cl)Cl)[C@@H]1C(=O)OCc1cccc(-c2ccco2)c1` (relative stereo) [j, [3-(2-furanyl)phenyl]methyl cis-3-(2,2-dichloroethenyl)-2,2-dimethylcyclopropanecarboxylate], the mortality at 512 ppm worked out at 50% in the series on Mexican bean beetle [2] (MBB, foliar, 512 ppm, 48 hours) and 100% in the series with southern armyworm [4] (SAW, foliar, 512 ppm, 48 hours). Also, the mortality at 500 ppm with twospotted spider mite (TSM, foliar, 48 hours) is 0%; in the series with pea aphid (PA, foliar, 48 hours), 40%. Further, the entries for the “Topical % Kill @ 5000 ng/insect” value in the series on milkweed bug, with southern armyworm [1] and in the series with Mexican bean beetle [3] were 0%, 100% and 30%, respectively. For the same molecule, the “Topical LD50” value in the series on southern armyworm [1] turned out to be 377 ng/insect.

In the case of `Cc1c(COC(=O)[C@H]2[C@@H](C=C(Cl)C(F)(F)F)C2(C)C)cccc1-c1cnccn1` (relative stereo) [p, [2-methyl-3-(pyrazinyl)phenyl]methyl cis-3-(2-chloro-3,3,3-trifluoro-1-propenyl)-2,2-dimethylcyclopropanecarboxylate], the mortality at 64 ppm in the series with Mexican bean beetle [2] (MBB, foliar, 48 hours) is 80%. Also, the mortality at 500 ppm turned out to be 100% in the series with twospotted spider mite (TSM, foliar, 48 hours); 100% in the series with pea aphid (PA, foliar, 48 hours); 100% in the series on southern armyworm [4] (SAW, foliar, 48 hours). For the same molecule, the “Topical LD50” value with milkweed bug turned out to be 1050 ng/insect; in the series with southern armyworm [1], 1948 ng/insect; in the series on Mexican bean beetle [3] it was 93 ng/insect. Moreover, the “Topical % Kill @ 5000 ng/insect” value with milkweed bug stood at 100%; in the series with southern armyworm [1], 90%; with Mexican bean beetle [3] it was 100%.

As for `Cc1c(COC(=O)[C@H]2[C@@H](C=C(Cl)C(F)(F)F)C2(C)C)cccc1-c1cccnc1` (relative stereo) [r, [2-methyl-3-(pyridin-3-yl)phenyl]methyl cis-3-(2-chloro-3,3,3-trifluoro-1-propenyl)-2,2-dimethylcyclopropanecarboxylate], the mortality at 64 ppm in the series with Mexican bean beetle [2] (MBB, foliar, 48 hours) was determined as 25%. Moreover, the mortality at 16 ppm in the series on twospotted spider mite (TSM, foliar, 48 hours) was determined as 0%. The “Topical LD50” value in the series on milkweed bug is listed as 1047 ng/insect; with southern armyworm [1] it was 2626 ng/insect; in the series on Mexican bean beetle [3] it was 863 ng/insect. The “Topical % Kill @ 5000 ng/insect” value in the series on milkweed bug and with southern armyworm [1] was 100% in each case. Also, the mortality at 500 ppm turned out to be 95% in the series on pea aphid (PA, foliar, 48 hours) and 100% with southern armyworm [4] (SAW, foliar, 48 hours).
